Results: patent publication US10858356B2, “Pyrazolopyridine derivative having GLP-1 receptor agonist effect” (Chugai Seiyaku Kabushiki Kaisha, priority 2016, dated 2020)
pEC50: −log10 of the molar value.

Target: human GLP1R (Homo sapiens (Human), UniProt P43220)
Experiment: In vitro cAMP signal activation in human GLP1R stably-expressing cell line (hGLP1R-HEK293)
Assay type: cell-based
Conditions: cAMP concentration in hGLP1R-HEK293; 100% = 1 nM human GLP-1 (7-37)

Sequence of human GLP1R (P43220 24-463): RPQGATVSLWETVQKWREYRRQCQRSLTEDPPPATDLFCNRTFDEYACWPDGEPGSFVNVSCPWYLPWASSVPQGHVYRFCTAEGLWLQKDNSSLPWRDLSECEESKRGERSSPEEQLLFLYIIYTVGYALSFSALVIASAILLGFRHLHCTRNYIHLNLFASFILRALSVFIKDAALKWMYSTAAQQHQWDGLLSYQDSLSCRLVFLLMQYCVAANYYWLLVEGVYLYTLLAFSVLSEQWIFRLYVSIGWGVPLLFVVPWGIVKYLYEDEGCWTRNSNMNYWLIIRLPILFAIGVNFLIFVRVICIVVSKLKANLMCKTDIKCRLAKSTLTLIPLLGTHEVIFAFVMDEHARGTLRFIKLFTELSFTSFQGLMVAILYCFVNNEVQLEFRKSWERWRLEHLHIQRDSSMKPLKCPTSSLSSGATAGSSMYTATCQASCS

`Cc1cc(-n2nc3c(c2-n2ccn(-c4ccc5c(cnn5[C@@H]5CCOC5)c4)c2=O)[C@H](C)N(C(=O)c2cc4cc(C5CCOCC5)cc(F)c4n2[C@@]2(c4noc(=O)[nH]4)C[C@@H]2C)CC3)cc(C)c1F` [compound 64] and `Cc1cc(-n2nc3c(c2-n2ccn(-c4ccc5c(cnn5C)c4Cl)c2=O)[C@H](C)N(C(=O)c2cc4cc(C5CCOCC5)ccc4n2[C@@]2(c4noc(=O)[nH]4)C[C@@H]2C)CC3)cc(C)c1F` [compound 72, 3-[(1S,2S)-1-[2-[(4S)-3-[3-(4-chloro-1-methylindazol-5-yl)-2-oxoimidazol-1-yl]-2-(4-fluoro-3,5-dimethylphenyl)-4-methyl-6,7-dihydro-4H-pyrazolo[4,3-c]pyridine-5-carbonyl]-5-(oxan-4-y)indol-1-yl]-2-methylcyclopropyl]-4H-1,2,4-oxadiazol-5-one] are within 0.2 log units of each other in pEC50: 8.70 for the first, 8.64 for the second.

Going from `Cc1cc(-n2nc3c(c2-n2ccn(-c4ccc5c(cnn5C)c4F)c2=O)[C@H](C)N(C(=O)c2cc4cc([C@H]5CCOC(C)(C)C5)ccc4n2[C@@]2(c4noc(=O)[nH]4)C[C@@H]2C)CC3)cc(C)c1Cl` [compound 65, 3-[(1S,2S)-1-[2-[(4S)-2-(4-chloro-3,5-dimethylphenyl)-3-[3-(4-fluoro-1-methylindazol-5-yl)-2-oxoimidazol-1-yl]-4-methyl-6,7-dihydro-4H-pyrazolo[4,3-c]pyridine-5-carbonyl]-5-[(4S)-2,2-dimethyloxan-4-yl]indol-1-yl]-2-methylcyclopropyl]-4H-1,2,4-oxadiazol-5-one] to `Cc1cc(-n2nc3c(c2-n2ccn(-c4ccc5c(cnn5C)c4Cl)c2=O)[C@H](C)N(C(=O)c2cc4cc([C@H]5CCOC(C)(C)C5)ccc4n2[C@@]2(c4noc(=O)[nH]4)C[C@@H]2C)CC3)cc(C)c1F` [compound 68, 3-[(1S,2S)-1-[2-[(4S)-3-[3-(4-chloro-1-methylindazol-5-yl)-2-oxoimidazol-1-yl]-2-(4-fluoro-3,5-dimethylphenyl)-4-methyl-6,7-dihydro-4H-pyrazolo[4,3-c]pyridine-5-carbonyl]-5-[(4S)-2,2-dimethyloxan-4-yl]indol-1-yl]-2-methylcyclopropyl]-4H-1,2,4-oxadiazol-5-one], the pEC50 rises from 8.46 to 8.74 (0.28 log units). The second is the more potent here.

Compared with `Cc1cc(-n2nc3c(c2-n2ccn(-c4ccc5c(cnn5C)c4)c2=O)[C@H](C)N(C(=O)c2cc4cc([C@H]5CCOC(C)(C)C5)ccc4n2[C@@]2(c4noc(=O)[nH]4)C[C@@H]2C)CC3)cc(C)c1F` [compound 66, 3-[(1S,2S)-1-[5-[(4S)-2,2-dimethyloxan-4-yl]-2-[(4S)-2-(4-fluoro-3,5-dimethylphenyl)-4-methyl-3-[3-(1-methylindazol-5-yl)-2-oxoimidazol-1-yl]-6,7-dihydro-4H-pyrazolo[4,3-c]pyridine-5-carbonyl]indol-1-yl]-2-methylcyclopropyl]-4H-1,2,4-oxadiazol-5-one], `Cc1cc(-n2nc3c(c2-n2ccn(-c4cc5cnn(C)c5cc4F)c2=O)[C@H](C)N(C(=O)c2cc4cc([C@H]5CCOC(C)(C)C5)ccc4n2[C@@]2(c4noc(=O)[nH]4)C[C@@H]2C)CC3)cc(C)c1F` [compound 70] is 0.27 log units lower in pEC50: 9.09 for the first, 8.82 for the second. The first is the more potent here.

First: Cc1cc(-n2nc3c(c2-n2ccn(-c4ccc5c(cnn5C)c4F)c2=O)[C@H](C)N(C(=O)c2cc4cc([C@H]5CCOC(C)(C)C5)ccc4n2[C@@]2(c4noc(=O)[nH]4)C[C@@H]2C)CC3)ccc1F [compound 69, 3-[(1S,2S)-1-[5-[(4S)-2,2-dimethyloxan-4-yl]-2-[(4S)-3-[3-(4-fluoro-1-methylindazol-5-yl)-2-oxoimidazol-1-yl]-2-(4-fluoro-3-methylphenyl)-4-methyl-6,7-dihydro-4H-pyrazolo[4,3-c]pyridine-5-carbonyl]indol-1-yl]-2-methylcyclopropyl]-4H-1,2,4-oxadiazol-5-one]
Second: COCCn1ncc2cc(-n3ccn(-c4c5c(nn4-c4cc(C)c(F)c(C)c4)CCN(C(=O)c4cc6cc([C@H]7CCOC(C)(C)C7)ccc6n4[C@@]4(c6noc(=O)[nH]6)C[C@@H]4C)[C@H]5C)c3=O)c(F)cc21 [compound 71, 3-[(1S,2S)-1-[5-[(4S)-2,2-dimethyloxan-4-yl]-2-[(4S)-2-(4-fluoro-3,5-dimethylphenyl)-3-[3-[6-fluoro-1-(2-methoxyethyl)indazol-5-yl]-2-oxoimidazol-1-yl]-4-methyl-6,7-dihydro-4H-pyrazolo[4,3-c]pyridine-5-carbonyl]indol-1-yl]-2-methylcyclopropyl]-4H-1,2,4-oxadiazol-5-one]
The pEC50 of the first is 0.34 log units lower: 8.55 for the first, 8.89 for the second.

First: CCc1nccc(-c2ccc3c(c2)cc(C(=O)N2CCc4nn(-c5cc(C)c(F)c(C)c5)c(-n5ccn(-c6ccc7c(cnn7C)c6)c5=O)c4[C@@H]2C)n3[C@@]2(c3noc(=O)[nH]3)C[C@@H]2C)c1C [compound 73, 3-[(1S,2S)-1-[5-(2-ethyl-3-methylpyridin-4-yl)-2-[(4S)-2-(4-fluoro-3,5-dimethylphenyl)-4-methyl-3-[3-(1-methylindazol-5-yl)-2-oxoimidazol-1-yl]-6,7-dihydro-4H-pyrazolo[4,3-c]pyridine-5-carbonyl]indol-1-yl]-2-methylcyclopropyl]-4H-1,2,4-oxadiazol-5-one]
Second: COc1nccc(-c2cc3cc(C(=O)N4CCc5nn(-c6cc(C)c(F)c(C)c6)c(-n6ccn(-c7ccc8c(cnn8C)c7)c6=O)c5[C@@H]4C)n([C@@]4(c5noc(=O)[nH]5)C[C@@H]4C)c3cc2F)c1C [compound 74, 3-[(1S,2S)-1-[6-Fluoro-2-[(4S)-2-(4-fluoro-3,5-dimethylphenyl)-4-methyl-3-[3-(1-methylindazol-5-yl)-2-oxoimidazol-1-yl]-6,7-dihydro-4H-pyrazolo[4,3-c]pyridine-5-carbonyl]-5-(2-methoxy-3-methylpyridin-4-yl)indol-1-yl]-2-methylcyclopropyl]-4H-1,2,4-oxadiazol-5-one]
The pEC50 of the first is 0.39 log units higher: 8.60 for the first, 8.21 for the second.

Going from `Cc1cc(-n2nc3c(c2-n2ccn(-c4ccc5c(cnn5C)c4)c2=O)CN(C(=O)c2cc4cc(C5CCOC6(CCCC6)C5)ccc4n2[C@@]2(c4noc(=O)[nH]4)C[C@@H]2C)CC3)cc(C)c1F` (stereo partly drawn) [compound 75, 3-[(1S,2S)-1-[2-[2-(4-fluoro-3,5-dimethylphenyl)-3-[3-(1-methylindazol-5-yl)-2-oxoimidazol-1-yl]-6,7-dihydro-4H-pyrazolo[4,3-c]pyridine-5-carbonyl]-5-(6-oxaspiro[4.5]decan-9-yl)indol-1-yl]-2-methylcyclopropyl]-4H-1,2,4-oxadiazol-5-one] to `CC[C@H]1C[C@@H](c2ccc3c(c2)cc(C(=O)N2CCc4nn(-c5cc(C)c(F)c(C)c5)c(-n5ccn(-c6ccc7c(cnn7C)c6)c5=O)c4C2)n3[C@@]2(c3noc(=O)[nH]3)C[C@@H]2C)CCO1` [compound 77], the pEC50 rises from 8.21 to 8.85 (0.64 log units).

`COCCn1ncc2cc(-n3ccn(-c4c5c(nn4-c4cc(C)c(F)c(C)c4)CCN(C(=O)c4cc6cc(C7CCOC(C)(C)C7)ccc6n4[C@@]4(c6noc(=O)[nH]6)C[C@@H]4C)C5)c3=O)ccc21` (stereo partly drawn) [compound 76, 3-[(1S,2S)-1-[5-(2,2-dimethyloxan-4-yl)-2-[2-(4-fluoro-3,5-dimethylphenyl)-3-[3-[1-(2-methoxyethyl)indazol-5-yl]-2-oxoimidazol-1-yl]-6,7-dihydro-4H-pyrazolo[4,3-c]pyridine-5-carbonyl]indol-1-yl]-2-methylcyclopropyl]-4H-1,2,4-oxadiazol-5-one] and `CC[C@H]1C[C@]1(c1noc(=O)[nH]1)n1c(C(=O)N2CCc3nn(-c4cc(C)c(F)c(C)c4)c(-n4ccn(-c5ccc6c(cnn6C)c5)c4=O)c3C2)cc2cc(C3CCOCC3)ccc21` [compound 78, 3-[(1S,2S)-2-Ethyl-1-[2-[2-(4-fluoro-3,5-dimethylphenyl)-3-[3-(1-methylindazol-5-yl)-2-oxoimidazol-1-yl]-6,7-dihydro-4H-pyrazolo[4,3-c]pyridine-5-carbonyl]-5-(oxan-4-yl)indol-1-yl]cyclopropyl]-4H-1,2,4-oxadiazol-5-one] are within 0.2 log units of each other in pEC50: 8.62 for the first, 8.44 for the second.

`Cc1cc(-n2nc3c(c2-n2ccn(-c4ccc5c(cnn5C)c4)c2=O)CN(C(=O)c2cc4cc(C5CCOCC5)ccc4n2[C@@]2(c4noc(=O)[nH]4)C[C@@H]2CO)CC3)cc(C)c1F` [compound 79, 3-[(1S,2S)-1-[2-[2-(4-fluoro-3,5-dimethylphenyl)-3-[3-(1-methylindazol-5-yl)-2-oxoimidazol-1-yl]-6,7-dihydro-4H-pyrazolo[4,3-c]pyridine-5-carbonyl]-5-(oxan-4-yl)indol-1-yl]-2-(hydroxymethyl)cyclopropyl]-4H-1,2,4-oxadiazol-5-one] and `Cc1cc(-n2nc3c(c2-n2ccn(-c4ccc5c(cnn5C)c4)c2=O)[C@H](C)N(C(=O)c2cc4cc(C5CCOCC5)ccc4n2[C@@]2(c4noc(=O)[nH]4)C[C@@H]2C)[C@H](C)C3)cc(C)c1F` [compound 80, 3-[(1S,2S)-1-[2-[(4S,6R)-2-(4-fluoro-3,5-dimethylphenyl)-4,6-dimethyl-3-[3-(1-methylindazol-5-yl)-2-oxoimidazol-1-yl]-6,7-dihydro-4H-pyrazolo[4,3-c]pyridine-5-carbonyl]-5-(oxan-4-yl)indol-1-yl]-2-methylcyclopropyl]-4H-1,2,4-oxadiazol-5-one] are the same in pEC50: 8.62 for the first, 8.62 for the second.
